Test: xn = mol fraction of the nth substance listed
Conditions: 101.3 kPa, Liquid

Cc1cccc(C)c1 [1,3-dimethylbenzene] + C[S+](C)[O-]
Conditions	mass density [kg/m3]
293.15 K, x1 = 0.0679	1074.3
293.15 K, x1 = 0.1489	1046.5
293.15 K, x1 = 0.2044	1028.97
293.15 K, x1 = 0.2613	1012.13
293.15 K, x1 = 0.3487	988.35
293.15 K, x1 = 0.3975	976.03
293.15 K, x1 = 0.4578	961.7
293.15 K, x1 = 0.5244	946.87
293.15 K, x1 = 0.5896	933.28
293.15 K, x1 = 0.6597	919.61
293.15 K, x1 = 0.7393	905.13
293.15 K, x1 = 0.8218	891.15
293.15 K, x1 = 0.8835	881.33
293.15 K, x1 = 0.9412	872.62
303.15 K, x1 = 0.0735	1063.89
303.15 K, x1 = 0.1579	1035.01
303.15 K, x1 = 0.2387	1010.01
303.15 K, x1 = 0.3087	990.22
303.15 K, x1 = 0.3754	972.78
303.15 K, x1 = 0.4147	963.09
303.15 K, x1 = 0.4892	945.8
303.15 K, x1 = 0.5539	931.86
303.15 K, x1 = 0.6209	918.33
303.15 K, x1 = 0.6902	905.23
303.15 K, x1 = 0.7532	894.02
303.15 K, x1 = 0.8149	883.65
303.15 K, x1 = 0.8687	875.05
303.15 K, x1 = 0.9373	864.64
313.15 K, x1 = 0.0854	1051.04
313.15 K, x1 = 0.1527	1028.01
313.15 K, x1 = 0.2357	1002.14
313.15 K, x1 = 0.2978	984.4
313.15 K, x1 = 0.3576	968.48
313.15 K, x1 = 0.4077	955.97
313.15 K, x1 = 0.4676	941.86
313.15 K, x1 = 0.5239	929.42
313.15 K, x1 = 0.5823	917.24
313.15 K, x1 = 0.6521	903.59
313.15 K, x1 = 0.7389	887.82
313.15 K, x1 = 0.7912	878.91
313.15 K, x1 = 0.8513	869.17
313.15 K, x1 = 0.9327	856.77
323.15 K, x1 = 0.0746	1046.35
323.15 K, x1 = 0.1647	1015.41
323.15 K, x1 = 0.2138	999.97
323.15 K, x1 = 0.2847	979.25
323.15 K, x1 = 0.3579	959.6
323.15 K, x1 = 0.4135	945.75
323.15 K, x1 = 0.4724	931.98
323.15 K, x1 = 0.5249	920.42
323.15 K, x1 = 0.6038	904.17
323.15 K, x1 = 0.6739	890.78
323.15 K, x1 = 0.7598	875.54
323.15 K, x1 = 0.8133	866.63
323.15 K, x1 = 0.8732	857.15
323.15 K, x1 = 0.9239	849.51
333.15 K, x1 = 0.0673	1040.47
333.15 K, x1 = 0.1568	1009.3
333.15 K, x1 = 0.2249	987.86
333.15 K, x1 = 0.2935	968.02
333.15 K, x1 = 0.3687	948.04
333.15 K, x1 = 0.4312	932.71
333.15 K, x1 = 0.4921	918.76
333.15 K, x1 = 0.5638	903.47
333.15 K, x1 = 0.6304	890.23
333.15 K, x1 = 0.693	878.57
333.15 K, x1 = 0.7563	867.46
333.15 K, x1 = 0.8137	857.93
333.15 K, x1 = 0.8846	846.82
333.15 K, x1 = 0.9355	839.26
343.15 K, x1 = 0.0647	1032.84
343.15 K, x1 = 0.1491	1003.11
343.15 K, x1 = 0.2139	982.42
343.15 K, x1 = 0.2749	964.42
343.15 K, x1 = 0.3588	941.76
343.15 K, x1 = 0.4395	921.95
343.15 K, x1 = 0.5023	907.73
343.15 K, x1 = 0.5539	896.74
343.15 K, x1 = 0.6135	884.76
343.15 K, x1 = 0.675	873.12
343.15 K, x1 = 0.7523	859.44
343.15 K, x1 = 0.8132	849.34
343.15 K, x1 = 0.8643	841.29
343.15 K, x1 = 0.9247	832.25
353.15 K, x1 = 0.0734	1020.97
353.15 K, x1 = 0.1359	998.8
353.15 K, x1 = 0.1844	982.84
353.15 K, x1 = 0.2258	970
353.15 K, x1 = 0.2844	952.95
353.15 K, x1 = 0.3535	934.34
353.15 K, x1 = 0.4241	916.83
353.15 K, x1 = 0.4798	903.97
353.15 K, x1 = 0.5323	892.53
353.15 K, x1 = 0.6042	877.86
353.15 K, x1 = 0.6724	864.89
353.15 K, x1 = 0.7539	850.47
353.15 K, x1 = 0.8375	836.8
353.15 K, x1 = 0.9144	825.15
